According to article PMC7522794, “Synthesis and evaluation of novel 2,4-disubstituted arylthiazoles against T. brucei” (RSC Medicinal Chemistry, 2019):
Blank lines part the entries; values can stand above or below the compound they belong to.

Legend:
[1] = system: Bloodstream form T. brucei (strain 427); assay: Trypanocidal activity against bloodstream form T. brucei (Alamar Blue growth inhibition); assay type: cell-based, Trypanosoma brucei; details: Trypanosoma brucei, 48 hours + overnight Alamar Blue; for IC50: concentration that inhibits growth by 50%; for IC90: concentration that inhibits growth by 90%
Description: Bloodstream form T. brucei (strain 427) were cultured at 37 °C in modified Iscove's medium. Trypanocidal activity was assessed by growing parasites in microtiter plates in the presence of various drug concentrations. […] The plates were incubated for 48 hours at 37 °C and 20 μL Alamar Blue was then added to each well. After an additional overnight incubation, the fluorescence was determined. Inhibition of growth was calculated by comparison with control values and IC50 and IC90 values were determined in triplicate using linear regression analysis.

[2] = Cytotoxic activity against rat skeletal myoblast L6 cells (Alamar Blue); assay type: cell-based; details: rat, L6 cells (rat skeletal muscle line); cytotoxicity, 6 days incubation + 8 hours Alamar Blue
Description: (§1) Cytotoxicity against mammalian cells was assessed using microtitre plates. Briefly, L6 cells (a rat skeletal muscle line) were seeded at 1 × 10^4 mL^–1 in 200 μL of growth medium containing 7 different compound concentrations in a range previously established to encompass both the IC50 and IC90 values. The plates were incubated for 6 days at 37 °C and 20 μL Alamar Blue (Biosource UK Ltd) was then added to each well. After an additional 8 hours incubation, the fluorescence was determined using a FLUOstar Omega fluorescent plate reader (BMG Labtech). Inhibition of growth was calculated by comparison with control values and IC50 and IC90 values were determined in triplicate using linear regression analysis.

L6 cells = assay: as above; assay type: cell-based; details: ratio of IC50 values obtained with L6 cells and T. brucei
Description: as §1

SMILES: O=C(NCCc1csc(-c2ccc(F)c(C34CC5CC(CC(C5)C3)C4)c2)n1)N1CCCCC1 [Compound 1j, N-{2-[2-(3-(1-Tricyclo[3.3.1.1^3,7]decyl)-4-fluorophenyl)thiazol-4-yl}ethyl)piperidine-1-yl-carboxamide]
IC50 [1]: 10.7 ± 0.3 µM
IC90 [1]: 12.6 ± 0.2 µM
IC50 [2]: < 10.3 µM
S.I. (selectivity index) (L6 cells): <1

SMILES: NCCc1csc(-c2ccc(C34CC5CC(CC(C5)C3)C4)cc2)n1 [Compound 2a, 2-{2-[4-(1-Tricyclo[3.3.1.1^3,7]decyl)phenyl]thiazol-4-yl}ethan-1-amine]
IC50 [1]: 0.8 ± 0.03 µM
IC90 [1]: 1.17 ± 0.01 µM
IC50 [2]: 4.08 ± 0.15 µM
S.I. (selectivity index) (L6 cells): 5.1

SMILES: CNCCc1csc(-c2ccc(C34CC5CC(CC(C5)C3)C4)cc2)n1 [Compound 2b, 2-{2-[4-(1-Tricyclo[3.3.1.1^3,7]decyl)phenyl]thiazol-4-yl}-N-methylethan-1-amine]
IC50 [1]: 0.59 ± 0.02 µM
IC90 [1]: 0.79 ± 0.01 µM
IC50 [2]: 0.96 ± 0.26 µM
S.I. (selectivity index) (L6 cells): 1.6

melting point: 345 °C (dec.)
SMILES: Br.Nc1nc(-c2ccc(C34CC5CC(CC(C5)C3)C4)cc2)cs1 [Compound 3a, 4-[4-(1-Tricyclo[3.3.1.1^3,7]decyl)phenyl]thiazol-2-amine hydrobromide]
IC50 [1]: 22.5 ± 0.6 µM
IC90 [1]: 30.5 ± 4.5 µM
IC50 [2]: 13.8 ± 1.6 µM
S.I. (selectivity index) (L6 cells): <1

melting point: 261 to 263 °C
SMILES: Br.NCCc1nc(-c2ccc(C34CC5CC(CC(C5)C3)C4)cc2)cs1 [Compound 3c, 2-{4-[4-(1-Tricyclo[3.3.1.1^3,7]decyl)phenyl]thiazol-2-yl}ethanamine hydrobromide]
IC50 [1]: 2.74 ± 0.29 µM
IC90 [1]: 4.4 ± 0.07 µM
IC50 [2]: 4.16 ± 0.24 µM
S.I. (selectivity index) (L6 cells): 1.5

SMILES: Br.CN(C)CCc1nc(-c2ccc(C34CC5CC(CC(C5)C3)C4)cc2)cs1 [Compound 3d, 2-{4-[4-(1-Tricyclo[3.3.1.1^3,7]decyl)phenyl]thiazol-2-yl}-N,N-dimethylethan-1-amine dihydrochloride]
IC50 [2]: 3.19 ± 0.25 µM
S.I. (selectivity index) (L6 cells): 2.3
melting point: 200 to 202 °C
